The nature of one data set: LYSA solubility assay. The data set is classed as physicochemical. The following applies: for solubility thermodynamic: 0.05 M phosphate buffer, pH 6.5, aqueous buffer, thermodynamic from solid. As to the method:
LYSA study is used to determine the aqueous solubility of tested compounds. Samples are prepared in duplicate from 10 mM DMSO stock solution. After evaporation of DMSO with a centrifugal vacuum evaporator, compounds are dissolved in a 0.05 M phosphate buffer (pH 6.5), stirred for one hr and shaken for two hrs. After one night, the solutions are filtered using a microtiter filter plate. Then the filtrate and its 1/10 dilution are analyzed by HPLC-UV. In addition, a four-point calibration curve is prepared from the 10 mM stock solutions and used for the solubility determination of the compounds. The results are in μg/mL. In case the percentage of sample measured in solution after evaporation divided by the calculated maximum of sample amount is bigger than 80%, the solubility is reported as bigger than this value.

The next data set has as its target T1, human TLR7 (Homo sapiens, UniProt Q9NYK1).
T1 construct: host or cells: HEK293 (HEK-Blue hTLR7)
T1 sequence (Q9NYK1 27-1049): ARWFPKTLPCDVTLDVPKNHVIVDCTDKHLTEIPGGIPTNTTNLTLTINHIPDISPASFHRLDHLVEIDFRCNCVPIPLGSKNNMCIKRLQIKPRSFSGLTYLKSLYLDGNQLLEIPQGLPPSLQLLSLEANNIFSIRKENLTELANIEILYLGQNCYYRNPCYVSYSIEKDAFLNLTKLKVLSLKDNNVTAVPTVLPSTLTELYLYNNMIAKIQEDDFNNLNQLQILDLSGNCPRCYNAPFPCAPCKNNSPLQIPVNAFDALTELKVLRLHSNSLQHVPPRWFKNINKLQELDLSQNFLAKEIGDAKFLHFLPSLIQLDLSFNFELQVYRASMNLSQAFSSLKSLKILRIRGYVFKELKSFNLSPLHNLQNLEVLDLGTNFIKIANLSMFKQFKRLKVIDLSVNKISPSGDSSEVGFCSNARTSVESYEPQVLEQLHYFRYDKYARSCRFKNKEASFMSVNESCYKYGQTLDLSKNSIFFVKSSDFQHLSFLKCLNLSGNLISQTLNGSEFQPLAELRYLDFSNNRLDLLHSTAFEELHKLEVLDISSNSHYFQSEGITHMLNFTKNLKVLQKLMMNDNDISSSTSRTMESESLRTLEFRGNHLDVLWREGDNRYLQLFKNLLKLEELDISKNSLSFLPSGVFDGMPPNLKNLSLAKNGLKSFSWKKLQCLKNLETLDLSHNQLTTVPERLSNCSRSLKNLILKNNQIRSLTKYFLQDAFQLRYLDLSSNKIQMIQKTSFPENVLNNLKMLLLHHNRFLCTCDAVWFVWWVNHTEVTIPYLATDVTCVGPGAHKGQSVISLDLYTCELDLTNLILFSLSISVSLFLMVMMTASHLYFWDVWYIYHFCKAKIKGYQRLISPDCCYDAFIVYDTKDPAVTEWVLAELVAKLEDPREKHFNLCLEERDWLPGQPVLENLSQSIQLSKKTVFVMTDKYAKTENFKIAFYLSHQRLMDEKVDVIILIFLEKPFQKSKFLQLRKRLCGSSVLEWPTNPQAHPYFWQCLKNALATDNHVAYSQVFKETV
Description: HEK293-Blue-hTLR-7 cells assay (SEAP reporter, R848 stimulation). Particulars: HEK293-Blue-hTLR7 cells, R848, 20 hrs. The data set is classed as cell-based. The protocol:
The following tests were carried out in order to determine the activity of the compounds of formula (I) in HEK293-Blue-hTLR-7/8/9 cells assay.
HEK293-Blue-hTLR-7 Cells Assay:
A stable HEK293-Blue-hTLR-7 cell line was purchased from InvivoGen (Cat. #: hkb-htlr7, San Diego, Calif. USA). These cells were originally designed for studying the stimulation of human TLR7 by monitoring the activation of NF-κB. A SEAP (secreted embryonic alkaline phosphatase) reporter gene was placed under the control of the IFN-β minimal promoter fused to five NF-κB and AP-1-binding sites. The SEAP was induced by activating NF-κB and AP-1 via stimulating HEK-Blue hTLR7 cells with TLR7 ligands. Therefore the reporter expression was declined by TLR7 antagonist under the stimulation of a ligand, such as R848 (Resiquimod), for incubation of 20 hrs. The cell culture supernatant SEAP reporter activity was determined using QUANTI-Blue™ kit (Cat. #: rep-qbl, Invivogen, San Diego, Calif., USA) at a wavelength of 640 nm, a detection medium that turns purple or blue in the presence of alkaline phosphatase.
HEK293-Blue-hTLR7 cells were incubated at a density of 250,000˜450,000 cells/mL in a volume of 170 μL in a 96-well plate in Dulbecco's Modified Eagle's medium (DMEM) containing 4.5 g/L glucose, 50 U/mL penicillin, […], […], 2 mM L-glutamine, 10% (v/v) heat-inactivated fetal bovine serum with addition of 20 μL A test compound in a serial dilution in the presence of final DMSO at 1% and 10 μL of 20 uM R848 in above DMEM, perform incubation under 37° C. in a CO2 incubator for 20 hrs. Then 20 μL of the supernatant from each well was incubated with 180 μQuanti-blue substrate solution at 37° C. for 2 hrs and the absorbance was read at 620˜655 nm using a spectrophotometer. The signalling pathway that TLR7 activation leads to downstream NF-κB activation has been widely accepted, and therefore similar reporter assay was modified for evaluating TLR7 antagonist.

Each structure is given as a SMILES string. In brackets after ≈: the same amount, converted by molar mass. Bounds are passed on as bounds.

For `C[C@@H]1CN(c2ccc(C(F)(F)F)c3ncccc23)C[C@H](C(=O)NC2CNCC(F)(F)C2)O1` (stereo partly drawn) [Example 28, (2R,6R)-N-(5,5-difluoro-3-piperidyl)-6-methyl-4-[8-(trifluoromethyl)-5-quinolyl]morpholine-2-carboxamide], the solubility (thermodynamic) (commonly solubility found after equilibrating the solid with the medium) in “LYSA solubility assay” worked out at 480 µg/mL (≈ 1050 µM). For the same molecule, the midpoint of inhibition against human TLR7, the IC50, lay at 200 nM.

With `C[C@@H]1CN(c2ccc(Br)c3ncccc23)C[C@H](C(=O)NC2CNCC2F)O1` (stereo partly drawn) [Example 41, cis-(2R,6R)-4-(8-bromo-5-quinolyl)-N-[4-fluoropyrrolidin-3-yl]-6-methyl-morpholine-2-carboxamide], the solubility (thermodynamic) in the data set “LYSA solubility assay” was > 675 µg/mL. Moreover, the midpoint of inhibition at human TLR7, the IC50, lay at 15 nM.

As for `C[C@@H]1CN(c2ccc(C(F)(F)F)c3ncccc23)C[C@H](C(=O)NC2CC3CCCC(C2)N3)O1` (single isomer, unassigned) [Example 34A], the thermodynamic solubility in “LYSA solubility assay” was > 620 µg/mL. For the same molecule, on human TLR7, 4 nM corresponded to half-maximal inhibition (IC50).

Regarding `C[C@@H]1CN(c2ccc([N+](=O)[O-])c3ncccc23)C[C@H](C(=O)N[C@@H]2CNC[C@@H]2F)O1` [Example 19, cis-(2R,6R)-N-[41-fluoropyrrolidin-3-yl]-6-methyl-4-(8-nitro-5-quinolyl)morpholine-2-carboxamide], the thermodynamic solubility in “LYSA solubility assay” is > 510 µg/mL. For the same molecule, on human TLR7, the IC50 (as a rule, the point on the concentration scale where inhibition reaches its midpoint) was found to be 14 nM.

In the case of `C[C@@H]1CN(c2ccc(C(F)(F)F)c3ncccc23)C[C@H](C(=O)NC2CCN(C)CC2)O1` [Example 5, (2R,6R)-6-methyl-N-(1-methyl-4-piperidyl)-4-[8-(trifluoromethyl)-5-quinolyl]morpholine-2-carboxamide], the thermodynamic solubility in “LYSA solubility assay” was > 655 µg/mL. Further, it took 7 nM to reach half-maximal inhibition at human TLR7 (IC50).

For the molecule `C[C@@H]1CN(c2ccc(C(F)(F)F)c3ncccc23)C[C@H](C(=O)N2CCC(N)C2)O1` (stereo partly drawn) [Example 10, (3-aminopyrrolidin-1-yl)-[(2R,6R)-6-methyl-4-[8-(trifluoromethyl)-5-quinolyl]morpholin-2-yl]methanone], the solubility (thermodynamic) in the data set “LYSA solubility assay” was > 655 µg/mL. Further, at human TLR7, the IC50 was 360 nM.

With `C[C@@H]1CN(c2ccc(C(F)(F)F)c3ncccc23)C[C@H](C(=O)N2CC(N)C2)O1` [Example 7, (3-aminoazetidin-1-yl)-[(2R,6R)-6-methyl-4-[8-(trifluoromethyl)-5-quinolyl]morpholin-2-yl]methanone], the solubility (thermodynamic) in “LYSA solubility assay” is > 605 µg/mL. Besides, the half-inhibitory concentration (IC50) on human TLR7 turned out to be 63 nM.

Regarding `C[C@@H]1CN(c2ccc(C(F)(F)F)c3ncccc23)C[C@H](C(=O)NCCN2CCOCC2)O1` [Example 13, (2R,6R)-6-methyl-N-(2-morpholinoethyl)-4-[8-(trifluoromethyl)-5-quinolyl]morpholine-2-carboxamide], the solubility (thermodynamic) in “LYSA solubility assay” was > 725 µg/mL. The same molecule returned an IC50 on human TLR7 of 290 nM.

Turning to `C[C@@H]1CN(c2ccc(C(F)(F)F)c3ncccc23)C[C@H](C(=O)NC2CC3COCC(C2)N3)O1` (stereo partly drawn) [Example 33, (2R,6R)-6-methyl-N-(3-oxa-9-azabicyclo[3.3.1]nonan-7-yl)-4-[8-(trifluoromethyl)-5-quinolyl]morpholine-2-carboxamide], the thermodynamic solubility in “LYSA solubility assay” was found to be 350 µg/mL (≈ 754 µM). This molecule returned an IC50 at human TLR7 of 2 nM.

In the case of `C[C@@H]1CN(c2ccc(C(F)(F)F)c3ncccc23)C[C@H](C(=O)NC2CCCNCC2)O1` (stereo partly drawn) [Example 8, (2R,6R)-N-(azepan-4-yl)-6-methyl-4-[8-(trifluoromethyl)-5-quinolyl]morpholine-2-carboxamide], the solubility (thermodynamic) in “LYSA solubility assay” is > 680 µg/mL. The molecule also had a half-maximal inhibitory concentration (IC50) on human TLR7 of 4 nM.

Consider `C[C@@H]1CN(c2ccc(I)c3ncccc23)C[C@H](C(=O)NC2CCN(C)CC2)O1` [Example 38, (2R,6R)-4-(8-iodo-5-quinolyl)-6-methyl-N-(1-methyl-4-piperidyl)morpholine-2-carboxamide], for which the solubility (thermodynamic) in the data set “LYSA solubility assay” was > 650 µg/mL. In addition, half-maximal inhibition on human TLR7 (IC50) was put at 3 nM.

In the case of `C[C@@H]1CN(c2ccc(C(F)(F)F)c3ncccc23)C[C@H](C(=O)N2CCC3(CCNC3)C2)O1` (stereo partly shown) [Example 36], the solubility (thermodynamic) in the data set “LYSA solubility assay” is > 595 µg/mL. For the same molecule, half-maximal inhibition on human TLR7 (IC50) was put at 130 nM.

In “LYSA solubility assay”, `C[C@@H]1CN(c2ccc(I)c3ncccc23)C[C@H](C(=O)NC2CNCC2F)O1` (stereo partly drawn) [Example 40, cis-(2R,6R)-N-[4-fluoropyrrolidin-3-yl]-4-(8-iodo-5-quinolyl)-6-methyl-morpholine-2-carboxamide] yielded a thermodynamic solubility of 555 µg/mL (≈ 1150 µM). In addition, at human TLR7, inhibition was half-maximal at 15 nM (IC50).

`C[C@@H]1CN(c2ccc(C(F)(F)F)c3ncccc23)C[C@H](C(=O)NC2CC3CCC(C2)N3)O1` (single isomer, unassigned) [Example 47B]: in “LYSA solubility assay” (0.05 M phosphate buffer (pH 6.5)), the LYSA is >605.0 µg/mL. Besides, the IC50 on human TLR7 was < 3 nM.

With `C[C@@H]1CN(c2ccc([N+](=O)[O-])c3ncccc23)C[C@H](C(=O)NC2CCN(C)CC2)O1` [Example 20, (2R,6R)-6-methyl-N-(1-methyl-4-piperidyl)-4-(8-nitro-5-quinolyl)morpholine-2-carboxamide], in the data set “LYSA solubility assay”, the thermodynamic solubility was > 515 µg/mL. This molecule showed an IC50 against human TLR7 of 2 nM.

As for `C#Cc1ccc(N2C[C@@H](C)O[C@@H](C(=O)NC3CCN(C)CC3)C2)c2cccnc12` [Example 43, (2R,6R)-4-(8-ethynyl-5-quinolyl)-6-methyl-N-(1-methyl-4-piperidyl)morpholine-2-carboxamide], the solubility (thermodynamic) in “LYSA solubility assay” was > 560 µg/mL. This molecule gave a half-inhibitory concentration (IC50) on human TLR7 of 10 nM.

Consider `C[C@@H]1CN(c2ccc(Cl)c3ncccc23)C[C@H](C(=O)NC2CCN(C)CC2)O1` [Example 24, (2R,6R)-4-(8-chloro-5-quinolyI)-6-methyl-N-(1-methyl-4-piperidyl)morpholine-2-carboxamide], for which the solubility (thermodynamic) in the data set “LYSA solubility assay” is > 475 µg/mL. In addition, the IC50 at human TLR7 came out at 15 nM.

For the molecule `C[C@@H]1CN(c2ccc(Cl)c3ncccc23)C[C@H](C(=O)N[C@H]2CNC[C@H]2F)O1` [Example 22, (2R,6R)-4-(8-chloro-5-quinolyl)-N-[(3S,4R)-4-fluoropyrrolidin-3-yl]-6-methyl-morpholine-2-carboxamide], the solubility (thermodynamic) in “LYSA solubility assay” is > 455 µg/mL. The same molecule came in with a half-maximal inhibitory concentration (IC50) at human TLR7 of 39 nM.

Turning to `C[C@@H]1CN(c2ccc(C(F)(F)F)c3ncccc23)C[C@H](C(=O)NCC2CN(C)CCO2)O1` (stereo partly drawn) [Example 3, (2R,6R)-6-methyl-N-[(4-methylmorpholin-2-yl)methyl]-4-[8-(trifluoromethyl)-5-quinolyl]morpholine-2-carboxamide], the solubility (thermodynamic) in “LYSA solubility assay” is > 690 µg/mL. The molecule also came in with a half-inhibitory concentration (IC50) on human TLR7 of 12 nM.

With `C[C@@H]1CN(c2ccc(C(F)(F)F)c3ncccc23)C[C@H](C(=O)N[C@@H]2CNC[C@@H]2F)O1` (single isomer, unassigned) [Example 2A], in the data set “LYSA solubility assay”, the solubility (thermodynamic) was > 580 µg/mL. Half-maximal inhibition against human TLR7 (IC50) required 41 nM.

The record behind these values is patent publication US20220363665A1, “QUINOLINE COMPOUNDS FOR THE TREATMENT OF AUTOIMMUNE DISEASE” (Hoffmann-La Roche Inc., priority 2019, published 2022).
